From patent US20050070510A1, “Substituted tetracycline compounds as synergistic antifungal agents” (Paratek Pharmaceuticals, Inc., priority 2001, published 2005)

system: COS-1 cells; test: In vitro mammalian cytotoxicity assay (Resazurin)

Compound	In Vitro Cytotoxicity
C#CCOC(=O)Nc1cc(N(C)C)c2c(c1O)C(=O)C1=C(O)[C@]3(C#N)C(=O)C(C(N)=O)=C(O)[C@@H](N(C)C)[C@]3(N)C[C@]1(N)C2 [SL]	** (toxicities less than 25 μg/mL are represented by **)
CN(C)c1cc(-c2ccoc2)c(O)c2c1C[C@@]1(N)C[C@@]3(N)[C@H](N(C)C)C(O)=C(C(N)=O)C(=O)[C@@]3(C#N)C(O)=C1C2=O [SN]	** (toxicities less than 25 μg/mL are represented by **)
CN(C)[C@@H]1C(O)=C(C(N)=O)C(=O)[C@@]2(C#N)C(O)=C3C(=O)c4c(ccc(N5CCCCC5)c4O)C[C@@]3(N)C[C@@]12N [SO]	** (toxicities less than 25 μg/mL are represented by **)
Cc1cc(CNCc2cc(N(C)C)c3c(c2O)C(=O)C2=C(O)[C@]4(C#N)C(=O)C(C(N)=O)=C(O)[C@@H](N(C)C)[C@]4(N)C[C@]2(N)C3)[nH]c1C [SP]	* (toxicities greater than >25 μg/ml are represented by *)
CN(C)c1cc(-c2ccc(CN3CCCC3)o2)c(O)c2c1C[C@@]1(N)C[C@@]3(N)[C@H](N(C)C)C(O)=C(C(N)=O)C(=O)[C@@]3(C#N)C(O)=C1C2=O [SQ]	* (toxicities greater than >25 μg/ml are represented by *)
CN(C)[C@@H]1C(O)=C(C(N)=O)C(=O)[C@@]2(C#N)C(O)=C3C(=O)c4c(O)ccc(-c5ccc(CNC6CCCCC6)o5)c4C[C@@]3(N)C[C@@]12N [SR]	** (toxicities less than 25 μg/mL are represented by **)
CN(C)[C@@H]1C(O)=C(C(N)=O)C(=O)[C@@]2(C#N)C(O)=C3C(=O)c4c(O)ccc(-c5ccc(CNCc6ccccc6)o5)c4C[C@@]3(N)C[C@@]12N [SS]	** (toxicities less than 25 μg/mL are represented by **)
CN(C)CCN(C)Cc1ccc(-c2cc(N(C)C)c3c(c2O)C(=O)C2=C(O)[C@]4(C#N)C(=O)C(C(N)=O)=C(O)[C@@H](N(C)C)[C@]4(N)C[C@]2(N)C3)s1 [ST]	* (toxicities greater than >25 μg/ml are represented by *)
CN(C)c1cc(CNC(=O)C(Cc2ccccc2)N(C)C)c(O)c2c1C[C@@]1(N)C[C@@]3(N)[C@H](N(C)C)C(O)=C(C(N)=O)C(=O)[C@@]3(C#N)C(O)=C1C2=O (stereo partly shown) [SU]	** (toxicities less than 25 μg/mL are represented by **)
CC(N)CNCc1cc(N(C)C)c2c(c1O)C(=O)C1=C(O)[C@]3(C#N)C(=O)C(C(N)=O)=C(O)[C@@H](N(C)C)[C@]3(N)C[C@]1(N)C2 (stereo partly shown) [SV]	* (toxicities greater than >25 μg/ml are represented by *)
CN(C)c1cc(CNC(=O)c2ccco2)c(O)c2c1C[C@@]1(N)C[C@@]3(N)[C@H](N(C)C)C(O)=C(C(N)=O)C(=O)[C@@]3(C#N)C(O)=C1C2=O [SW]	* (toxicities greater than >25 μg/ml are represented by *)
CN(C)[C@@H]1C(O)=C(C(N)=O)C(=O)[C@@]2(C#N)C(O)=C3C(=O)c4c(O)ccc(-c5ccc(CNC6CC6)o5)c4C[C@@]3(N)C[C@@]12N [SX]	** (toxicities less than 25 μg/mL are represented by **)
CN(C)[C@@H]1C(O)=C(C(N)=O)C(=O)[C@@]2(C#N)C(O)=C3C(=O)c4c(O)ccc(-c5ccc(CNC(C)(C)C)o5)c4C[C@@]3(N)C[C@@]12N [SY]	* (toxicities greater than >25 μg/ml are represented by *)
CCC(C)CNCc1cc(N(C)C)c2c(c1O)C(=O)C1=C(O)[C@]3(C#N)C(=O)C(C(N)=O)=C(O)[C@@H](N(C)C)[C@]3(N)C[C@]1(N)C2 (stereo partly shown) [SZ]	* (toxicities greater than >25 μg/ml are represented by *)
CN(C)c1cc(CN(Cc2ccn[nH]2)Cc2ccn[nH]2)c(O)c2c1C[C@@]1(N)C[C@@]3(N)[C@H](N(C)C)C(O)=C(C(N)=O)C(=O)[C@@]3(C#N)C(O)=C1C2=O [TA]	* (toxicities greater than >25 μg/ml are represented by *)
CN(C)c1cc(CNCC2CCCCC2)c(O)c2c1C[C@@]1(N)C[C@@]3(N)[C@H](N(C)C)C(O)=C(C(N)=O)C(=O)[C@@]3(C#N)C(O)=C1C2=O [TB]	* (toxicities greater than >25 μg/ml are represented by *)
CN(C)c1cc(CNC(N)=O)c(O)c2c1C[C@@]1(N)C[C@@]3(N)[C@H](N(C)C)C(O)=C(C(N)=O)C(=O)[C@@]3(C#N)C(O)=C1C2=O [TD]	* (toxicities greater than >25 μg/ml are represented by *)
Cc1coc(NCc2cc(N(C)C)c3c(c2O)C(=O)C2=C(O)[C@]4(C#N)C(=O)C(C(N)=O)=C(O)[C@@H](N(C)C)[C@]4(N)C[C@]2(N)C3)n1 [TE]	* (toxicities greater than >25 μg/ml are represented by *)
CCOC(=O)c1coc(NCc2cc(N(C)C)c3c(c2O)C(=O)C2=C(O)[C@]4(C#N)C(=O)C(C(N)=O)=C(O)[C@@H](N(C)C)[C@]4(N)C[C@]2(N)C3)n1 [TF]	* (toxicities greater than >25 μg/ml are represented by *)
CN(C)[C@@H]1C(O)=C(C(N)=O)C(=O)[C@@]2(C#N)C(O)=C3C(=O)c4c(O)c(CNCC(C)(C)C)cc(CNCC(C)(C)C)c4C[C@@]3(N)C[C@@]12N [TG]	* (toxicities greater than >25 μg/ml are represented by *)
CN(C)c1cc(CNCc2ccccc2)c(O)c2c1C[C@@]1(N)C[C@@]3(N)[C@H](N(C)C)C(O)=C(C(N)=O)C(=O)[C@@]3(C#N)C(O)=C1C2=O [TH]	* (toxicities greater than >25 μg/ml are represented by *)
Cc1noc(C)c1S(=O)(=O)NCc1cc(N(C)C)c2c(c1O)C(=O)C1=C(O)[C@]3(C#N)C(=O)C(C(N)=O)=C(O)[C@@H](N(C)C)[C@]3(N)C[C@]1(N)C2 [TJ]	* (toxicities greater than >25 μg/ml are represented by *)
CN(C)c1cc(CNCC(C)(C)C)c(O)c2c1C[C@@]1(N)C[C@@]3(N)[C@H](N(C)C)C(O)=C(C(N)=O)C(=O)[C@@]3(C#N)C(O)=C1C2=O [TK]	* (toxicities greater than >25 μg/ml are represented by *)
CN(C)[C@@H]1C(O)=C(C(N)=O)C(=O)[C@@]2(C#N)C(O)=C3C(=O)c4c(O)ccc(-c5cncnc5)c4C[C@@]3(N)C[C@@]12N [TQ]	* (toxicities greater than >25 μg/ml are represented by *)
CN(C)c1cc(NCc2cc(F)cc(F)c2)c(O)c2c1C[C@@]1(N)C[C@@]3(N)[C@H](N(C)C)C(O)=C(C(N)=O)C(=O)[C@@]3(C#N)C(O)=C1C2=O [TS]	** (toxicities less than 25 μg/mL are represented by **)
CCCCCC(=O)c1ccc(O)c2c1C[C@@]1(N)C[C@@]3(N)[C@H](N(C)C)C(O)=C(C(N)=O)C(=O)[C@@]3(C#N)C(O)=C1C2=O [TT]	** (toxicities less than 25 μg/mL are represented by **)
CN(C)c1cc(NCc2ccc(C#N)cc2)c(O)c2c1C[C@@]1(N)C[C@@]3(N)[C@H](N(C)C)C(O)=C(C(N)=O)C(=O)[C@@]3(C#N)C(O)=C1C2=O [TU]	* (toxicities greater than >25 μg/ml are represented by *)
CC(C)c1ccc(CNc2cc(N(C)C)c3c(c2O)C(=O)C2=C(O)[C@]4(C#N)C(=O)C(C(N)=O)=C(O)[C@@H](N(C)C)[C@]4(N)C[C@]2(N)C3)cc1 [TV]	** (toxicities less than 25 μg/mL are represented by **)
